Patent publication US8637683B2, “Macrocyclic lactone derivatives for the treatment of cancer” (Piramal Enterprises Limited, priority 2009, dated 2014)
pIC50: −log10 of the molar value.

Assays:
[1] = test system: panel of 12 human tumor cell lines; test: Monolayer assay, panel of 12 human tumor cell lines; type: cell-based; details: for pIC50 / Mean IC70: mean over panel of 12 human tumor cell lines, test range 0.0001 μM-10 μM; for % Selectivity / Rating (selectivity) / Selectivity Total (cell lines with individual IC70 < 1/3 mean IC70) / in vitro antitumor activity: panel of 12 human tumor cell lines
Method: Cell lines were routinely passaged once or twice weekly and maintained in culture for upto 20 passages. All cells were grown at 37° C. in a humidified atmosphere with 5% CO2 in RPMI 1640 medium supplemented with 10% (v/v) fetal calf serum (FCS) and 0.1 mg/mL gentamicin (medium and all other components from PAA, Cölbe, Germany). Authenticity of all cell lines was proven at the DSMZ by STR (short tandem repeat) analysis, a PCR based DNA-fingerprinting methodology.
Stock solutions of the test compounds (330 μg/mL in DMSO) were prepared and stored in small aliquots (200 μL) at −20° C. An aliquot of the stock solution was thawed on the day of use and stored at room temperature prior to and during dosing. The subsequent dilutions were done with complete RPMI 1640 cell culture medium as follows: the stock solution was diluted 1:22 followed by serial dilutions finally resulting in a (compared to the test concentration) 15-fold higher concentration. For the final dilution step (1:15), 10 μL/well of the respective compound solution was directly added to 140 μL/well culture medium. Test compounds were tested at […]. Each concentration was evaluated in triplicate.
A modified propidium iodide assay was used to assess the effect of the test compounds on the growth of the human tumor cell lines and was designed as in reference, Anti-cancer Drugs, 6, 522-532, (1995), the disclosure of which is incorporated by reference for the teaching of the assay.
Cells were plated in 96-well flat-bottom microtiter plates at a cell density of 4,000 to 10,000 cells/well. After a 24 h recovery period to allow the cells to resume exponential growth, the test compounds were applied at five concentrations in log increments in triplicates in two independent runs. After 4 days of treatment, the medium with/without test compounds including all floating (i.e., dead) cells was aspirated and replaced by 200 μL of an aqueous propidium iodide (PI) solution (7 μg/mL). To measure the viable cell number, the remaining adherent cells were killed and permeabilized by repeated freezing and thawing and PI fluorescence was measured using the Cytofluor 4000 microplate reader (excitation λ=530 nm, emission λ=620 nm), which was a measure for the number of cells which survived treatment. Pharmacological effects on cell proliferation and survival were expressed as Test/Control×100 (% T/C) values, with T and C representing the fluorescence read-outs for wells with and without test compound, respectively, i.e. T/C represents the ratio of viable cell numbers following incubation of cell line with/without test compound. Based on the T/C values IC50 and IC70 values, being the drug concentration necessary to inhibit cell growth by 50% (T/C=50%) and 70% (T/C=30%), respectively, were determined by plotting compound concentration versus cell viability (T/C). IC-values were calculated based on the principle of linear two-point curve fit.

[2] = test system: T 24; test: Monolayer assay (modified propidium iodide), T 24; type: cell-based, human; details: T 24, Bladder; 4 days of treatment
Source text: (§1) Oncotest GmbH, Germany's proprietary tumor cell line panel comprises 40 cell lines. These cell lines were derived from 15 different tumor histotypes, each represented by 1 to 6 different cell lines. Cell lines were established from cancer of the bladder (3), colon (4), head and neck (1), lung (6), breast (3), pancreas (3), prostate (4), ovary (2), kidney (3), liver (1), stomach (1) and the uteri body (1), as well as from melanoma (3), sarcoma (2) and pleuramesothelioma (3). Out of these 40 cell lines, 24 cell lines were established at Oncotest, from patient-derived tumor xenografts. The other 16 cell lines were either provided by the NCI (Bethesda; MD, USA) or were purchased from ATCC (Rockville, Md., USA) or DSMZ (Braunschweig, Germany).
(§2) Cell lines were routinely passaged once or twice weekly and maintained in culture for upto 20 passages. All cells were grown at 37° C. in a humidified atmosphere with 5% CO2 in RPMI 1640 medium supplemented with 10% (v/v) fetal calf serum (FCS) and 0.1 mg/mL gentamicin (medium and all other components from PAA, Cölbe, Germany). […]
(§3) Stock solutions of the test compounds (330 μg/mL in DMSO) were prepared and stored in small aliquots (200 μL) at −20° C. […] Each concentration was evaluated in triplicate. […]
(§4) Cells were plated in 96-well flat-bottom microtiter plates at a cell density of 4,000 to 10,000 cells/well. […] To measure the viable cell number, the remaining adherent cells were killed and permeabilized by repeated freezing and thawing and PI fluorescence was measured using the Cytofluor 4000 microplate reader (excitation λ=530 nm, emission λ=620 nm), which was a measure for the number of cells which survived treatment. Pharmacological effects on cell proliferation and survival were expressed as Test/Control×100 (% T/C) values, with T and C representing the fluorescence read-outs for wells with and without test compound, respectively, i.e. T/C represents the ratio of viable cell numbers following incubation of cell line with/without test compound. […] IC-values were calculated based on the principle of linear two-point curve fit. […]

[3] = test system: CXF 269L; test: Monolayer assay (modified propidium iodide), CXF 269L; type: cell-based, human; details: Colon, 4 days of treatment
Source text: as §1, §2, §3, §4

[4] = test system: LXF 526L; test: Monolayer assay (modified propidium iodide), LXF 526L; type: cell-based, human; details: Lung, 4 days of treatment
Source text: as §1, §2, §3, §4

[5] = test system: MDA 231; test: Monolayer assay (modified propidium iodide), MDA 231; type: cell-based, human; details: MDA 231, Mammary; 4 days of treatment
Source text: as §1, §2, §3, §4

Structure (SMILES): C/C=C/C(O)C(C)/C=C/C(=NOCC(=O)N1CCC(N2CCCCC2)CC1)C(C)C(O)C(C)C1OC(=O)/C(OC)=C/C(C)=C/C(C)C(O)C(CC)C(O)C(C)C/C(C)=C/C=C/C1OC (stereo in doubt) [Example 14, (3Z,5E,13E,15E)-18-((5Z,6E,10E)-5-(2-(1,4′-Bipiperidin-1′-yl)-2-oxoethoxyimino)-3,9-dihydroxy-4,8-dimethyldodeca-6,10-dien-2-yl)-9-ethyl-8,10-dihydroxy-3,17-dimethoxy-5,7,11,13-tetramethyloxacyclooctadeca-3,5,13,15-tetraen-2-one]
- pIC50 [1]: 6.45
- Mean IC70 [1]: 762 nM
- % Selectivity [1]: 8%
- Rating (selectivity) [1]: (+) (+ (4% > selective >= 12%))
- Selectivity Total (cell lines with individual IC70 < 1/3 mean IC70) [1]: 1/12
- in vitro antitumor activity [1]: showed in vitro antitumor activity

Structure (SMILES): C/C=C/C(O)C(C)/C=C/C(=NOCC(=O)NCc1ccc(F)cc1)C(C)C(O)C(C)C1OC(=O)/C(OC)=C/C(C)=C/C(C)C(O)C(CC)C(O)C(C)C/C(C)=C/C=C/C1OC (stereo in doubt) [Example 15, 2-((Z)-((6E,10E)-2-((4E,6E,14E,16Z)-11 Ethyl-10,12-dihydroxy-3,17-dimethoxy-7,9,13,15-tetramethyl-18-oxooxacyclooctadeca-4,6,14,16-tetraen-2-yl)-3,9-dihydroxy-4,8-dimethyldodeca-6,10-dien-5-ylidene)aminooxy)-N-(4-fluorobenzyl)acetamide]
- pIC50 [1]: 9.00
- Mean IC70 [1]: 3 nM
- % Selectivity [1]: 50%
- Rating (selectivity) [1]: (+++) (+++ (% selective > 20%))
- Selectivity Total (cell lines with individual IC70 < 1/3 mean IC70) [1]: 6/12
- in vitro antitumor activity [1]: showed in vitro antitumor activity

Structure (SMILES): C/C=C/C(O)C(C)/C=C/C(=NOCC(=O)N1CCCCC1)C(C)C(O)C(C)C1OC(=O)/C(OC)=C/C(C)=C/C(C)C(O)C(CC)C(O)C(C)C/C(C)=C/C=C/C1OC (stereo in doubt) [Example 13, (3Z,5E,13E,15E)-18-((5Z,6E,10E)-3,9-Dihydroxy-4,8-dimethyl-5-(2-oxo-2-(piperidin-1-yl)ethoxyimino)dodeca-6,10-dien-2-yl)-9-ethyl-8,10-dihydroxy-3,17-dimethoxy-5,7,11,13-tetramethyloxacyclooctadeca-3,5,13,15-tetraen-2-one]
- pIC50 [1]: 7.52
- Mean IC70 [1]: 97 nM
- % Selectivity [1]: 17%
- Rating (selectivity) [1]: (+ +)
- Selectivity Total (cell lines with individual IC70 < 1/3 mean IC70) [1]: 2/12
- in vitro antitumor activity [1]: showed in vitro antitumor activity

Structure (SMILES): C/C=C/C(O)C(C)/C=C/C(=NOCC(=O)N1CCN(C)CC1)C(C)C(O)C(C)C1OC(=O)/C(OC)=C/C(C)=C/C(C)C(O)C(CC)C(O)C(C)C/C(C)=C/C=C/C1OC (stereo in doubt) [Example 11, (3Z,5E,13E,15E)-18-((5Z,6E,10E)-3,9-Dihydroxy-4,8-dimethyl-5-(2-(4-methylpiperazin-1-yl)-2-oxoethoxyimino)dodeca-6,10-dien-2-yl)-9-ethyl-8,10-dihydroxy-3,17-dimethoxy-5,7,11,13-tetramethyloxacyclooctadeca-3,5,13,15-tetraen-2-one]
- pIC50 [1]: 8.22
- Mean IC70 [1]: 20 nM
- % Selectivity [1]: 25%
- Rating (selectivity) [1]: (+ + +)
- Selectivity Total (cell lines with individual IC70 < 1/3 mean IC70) [1]: 3/12
- in vitro antitumor activity [1]: showed in vitro antitumor activity

Structure (SMILES): C/C=C/C(O)C(C)/C=C/C(=NOCC(=O)NCCO)C(C)C(O)C(C)C1OC(=O)/C(OC)=C/C(C)=C/C(C)C(O)C(CC)C(O)C(C)C/C(C)=C/C=C/C1OC (stereo in doubt) [Example 12, 2-((Z)-((6E,10E)-2-((4E,6E,14E,16Z)-11-Ethyl-10,12-dihydroxy-3,17-dimethoxy-7,9,13,15-tetramethyl-18-oxooxacyclooctadeca-4,6,14,16-tetraen-2-yl)-3,9-dihydroxy-4,8-dimethyldodeca-6,10-dien-5-ylidene)aminooxy)-N-(2-hydroxyethyl)acetamide]
- pIC50 [1]: 8.70
- Mean IC70 [1]: 6 nM
- % Selectivity [1]: 42%
- Rating (selectivity) [1]: (+ + +)
- Selectivity Total (cell lines with individual IC70 < 1/3 mean IC70) [1]: 5/12
- in vitro antitumor activity [1]: showed in vitro antitumor activity

Structure (SMILES): C/C=C/C(O)C(C)/C=C/C(=N\OC)C(C)C(O)C(C)C1OC(=O)/C(OC)=C/C(C)=C/C(C)C(O)C(CC)C(O)C(C)C/C(C)=C/C=C/C1OC (stereo not shown) [Example 8, (3Z,5E,13E,15E)-18-((5E,6E,10E)-3,9-Dihydroxy-5-(methoxyimino)-4,8-dimethyldodeca-6,10-dien-2-yl)-9-ethyl-8,10-dihydroxy-3,17-dimethoxy-5,7,11,13-tetramethyloxacycloocta deca-3,5,13,15-tetraen-2-one]
- IC70 [2]: ≤ 0.3 ng/mL
- IC70 [3]: ≤ 0.3 ng/mL
- IC70 [4]: ≤ 0.3 ng/mL
- IC70 [5]: ≤ 0.3 ng/mL

Structure (SMILES): C/C=C/C(O)C(C)/C=C/C(=NOCC(=O)O)C(C)C(O)C(C)C1OC(=O)/C(OC)=C/C(C)=C/C(C)C(O)C(CC)C(O)C(C)C/C(C)=C/C=C/C1OC (stereo in doubt) [Example 10, ((Z)-((6E,10E)-2-((4E,6E,14E,16Z)-11-Ethyl-10,12-dihydroxy-3,17-dimethoxy-7,9,13,15-tetramethyl-18-oxooxacyclooctadeca-4,6,14,16-tetraen-2-yl)-3,9-dihydroxy-4,8-dimethyldodeca-6,10-dien-5-ylidene)aminooxy)acetic acid]
- pIC50 [1]: 6.29
- Mean IC70 [1]: 1258 nM
- % Selectivity [1]: 8%
- Rating (selectivity) [1]: (+) (+ (4% > selective >= 12%))
- Selectivity Total (cell lines with individual IC70 < 1/3 mean IC70) [1]: 1/12
- in vitro antitumor activity [1]: showed in vitro antitumor activity
